Converted amounts (≈) assume the structure as drawn.

The values that follow come from ChEMBL document CHEMBL4038312 (J Med Chem, 2017).

The nature of series [1]: physchem. The conditions noted are these: octanol/water, pH 7.4.
The nature of series [2]: physchem.
Series [3] can be described thus: Dissociation constant, pKa of the compound. Type of series: physicochemical.
A short description of series [4]: AUC (0 to infinity) in rat at 3 mg/kg, po. The series is classed as ADME, organism-based. Further details: dose 3 mg/kg, time infinity, route oral. The conditions noted are these: in vivo.
A short description of series [5]: Solubility of the compound at pH 6.5. Type of series: physicochemical. The conditions noted are these: buffer.
A short description of another series: in vivo. The conditions noted are these: rat, po, 3 mg/kg.
A short description of series [6]: Volume of distribution at steady state in dog at 0.1 mg/kg, iv. Type of series: ADME, organism-based, Canis lupus familiaris. The conditions noted are these: in vivo, read-out: Vdss.
Series [7] can be described thus: Cmax in rat at 3 mg/kg, po. Type of series: ADME, organism-based. Further details: dose 3 mg/kg, route oral. To be noted: in vivo.
A short description of series [8]: Drug excretion in iv dosed bile duct cannulated rat bile after 6 hrs. To be noted: read-out: Drug excretion. Type of series: ADME, organism-based.
A short description of series [9]: Permeability in RRCK cells. The series is classed as ADME, cell-based, Canis lupus familiaris, MDCKII-LE. To be noted: dog, MDCK; read-out: permeability.
The nature of series [10]: Volume of distribution at steady state in rat at 1 mg/kg, iv. Type of series: ADME, organism-based. To be noted: in vivo, read-out: Vdss.
The nature of series [11]: AUC (0 to infinity) in dog at […], po. To be noted: in vivo. On the set-up: dose 0.13 mg/kg, time infinity, route oral. Type of series: ADME, organism-based, Canis lupus familiaris.
Series [12] can be described thus: Oral bioavailability in dog at […]. The series is classed as ADME, organism-based, Canis lupus familiaris. The conditions noted are these: in vivo.
The nature of series [13]: Cmax in dog at […], po. Further details: dose 0.13 mg/kg, route oral. The series is classed as ADME, organism-based, Canis lupus familiaris. The conditions noted are these: in vivo.
Series [14] is described as follows: Cmax in human at 100 ug, po. Further details: dose 100 ug, route oral. Type of series: ADME. The conditions noted are these: in vivo.
Series [15] is described as follows: Oral bioavailability in human at 100 ug. Type of series: ADME, organism-based. To be noted: in vivo.
Series [16] is described as follows: Apparent permeability from basolateral to apical side in MDCK cells harboring MDR1. The series is classed as ADME, cell-based, Canis lupus familiaris. The conditions noted are these: dog.
Series [17] in a line: Apparent permeability from apical to basolateral side in MDCK cells harboring MDR1. Type of series: ADME, cell-based, Canis lupus familiaris. To be noted: dog.
A short description of series [18]: Tmax in rat at 3 mg/kg, po. Type of series: ADME, organism-based. The conditions noted are these: in vivo.
The nature of series [19]: Volume of distribution at steady state in human at 100 ug, iv. Type of series: ADME. The conditions noted are these: in vivo, read-out: Vdss.
Series [20] in a line: Cmax in dog at 3 mg/kg, po. Type of series: ADME, organism-based, Canis lupus familiaris. Further details: dose 3 mg/kg, route oral. To be noted: in vivo.
For a further series, the system named is Homo sapiens. The series is described as follows: Unbound Cmax in human at 2400 mg, po. Type of series: ADME. The conditions noted are these: in vivo.
Series [21] in a line: Tmax in dog at 3 mg/kg, po. The series is classed as ADME, organism-based, Canis lupus familiaris. To be noted: in vivo.
A short description of series [22]: Basic dissociation constant, pKa of the compound. The series is classed as physicochemical.
A short description of series [23]: Oral bioavailability in dog at 3 mg/kg. The series is classed as ADME, organism-based, Canis lupus familiaris. The conditions noted are these: in vivo.

`N#Cc1cc(S(=O)(=O)Nc2ncns2)ccc1Oc1ccc(C(F)(F)F)cc1-c1cccnn1` returned a logD in “physchem [1]” of 0.7.

Compound `N#Cc1cc(S(=O)(=O)Nc2ncns2)ccc1Oc1ccc(C(F)(F)F)cc1-c1ccncn1` gave a logD in “physchem [1]” of 0.9.

Compound `Cn1nccc1-c1cc(Cl)ccc1Oc1ccc(S(=O)(=O)Nc2nncs2)cc1C#N` had a pKa in “physchem [2]” of 4.5.

For `O=S(=O)(Nc1cscn1)c1cc(Cl)c(Oc2ccc(C(F)(F)F)cc2-c2ccnnc2)cc1F`, the logD in the series “physchem [1]” was 1.6. Moreover, the pKa in [3] was 5.6.

Take `Cn1nccc1-c1cc(Cl)ccc1Oc1ccc(S(=O)(=O)Nc2ncns2)cc1F`: the pKa in the series “physchem [2]” is 3.5.

In the series “physchem [1]”, `N#Cc1cc(S(=O)(=O)Nc2ncns2)ccc1Oc1ccc(Cl)cc1-c1ccn[nH]1` came in with a log distribution coefficient (logD) of 1.6.

In the series “physchem [2]”, `Cn1nccc1-c1cc(Cl)ccc1Oc1ccc(S(=O)(=O)Nc2ncns2)cc1C#N` displayed a pKa of 3.5.

Consider `Cn1nccc1-c1cc(Cl)ccc1Oc1cc(F)c(S(=O)(=O)Nc2nncs2)cc1Cl`, for which the pKa in the series “physchem [2]” turned out to be 4.5.

For the compound `N#Cc1cc(S(=O)(=O)Nc2ncns2)ccc1Oc1ccc(Cl)cc1-c1ccnc(N)c1`, in “physchem [1]”, the log distribution coefficient (logD) was determined as 1.6.

With `CCN1CC(n2nccc2-c2cc(Cl)ccc2Oc2cc(F)c(S(=O)(=O)Nc3cscn3)cc2F)C1`, the pH-dependent lipophilicity (logD) in “physchem [1]” amounted to 1.6.

In turn, `N#Cc1cc(S(=O)(=O)Nc2ncns2)ccc1Oc1ccc(C(F)(F)F)cc1-c1ccnnc1` displayed an area under the curve AUC(0-inf) in series [4] of 5 ng·h/mL. Besides, the solubility in series [5] was greater than 300 µM. This compound registered a pH-dependent lipophilicity (logD) in the series “physchem [1]” of 0.7. Further, the bioavailability in the series “in vivo” is less than 1%. Also, the Vd in series [6] amounted to 1.2 L/kg; in [10], 1.3 L/kg. For the same compound, the Cmax in [7] was determined as 1 ng/mL. Also, the dose excreted at 6 h in series [8] was determined as 73%. Also, in series [9], the Papp stood at 0.7 ×10⁻⁶ cm/s.

For the compound `N#Cc1cc(S(=O)(=O)Nc2ncns2)ccc1Oc1ccc(Cl)cc1-c1cn[nH]c1N`, in the series “physchem [1]”, the pH-dependent lipophilicity (logD) is 1.

`CN1CC(n2nccc2-c2cc(Cl)ccc2Oc2cc(F)c(S(=O)(=O)Nc3cscn3)cc2F)C1`: the logD in “physchem [1]” turned out to be 1.3.

In turn, `N#Cc1cc(S(=O)(=O)Nc2ncns2)ccc1Oc1ccc(Cl)cc1-c1cn[nH]c1` returned a solubility in series [5] of 259 µM (≈ 119 µg/mL). For the same compound, the pH-dependent lipophilicity (logD) in “physchem [1]” worked out at 1.7. In addition, the values for the Vd in [6] and in series [10] were 0.5 L/kg and 2.3 L/kg, respectively. Besides, the AUC(0-inf) in series [11] was 40 ng·h/mL. In addition, the bioavailability in series [12] was 23%. The Cmax in [13] is 18 ng/mL. The compound also registered a pKa in “physchem [2]” of 3.5. Also, the Papp in series [9] turned out to be 2.1 ×10⁻⁶ cm/s.

Compound `Cn1nccc1-c1cc(Cl)ccc1Oc1cc(F)c(S(=O)(=O)Nc2ncns2)cc1F` gave a pKa in “physchem [2]” of 3.5.

On to `Nc1n[nH]cc1-c1cc(C(F)(F)F)ccc1Oc1cc(F)c(S(=O)(=O)Nc2cscn2)cc1Cl`, for which the pH-dependent lipophilicity (logD) in “physchem [1]” was 2.2. In addition, in the series “physchem [2]”, the pKa came to 6.3.

For `Cc1[nH]ncc1-c1cc(C(F)(F)F)ccc1Oc1ccc(S(=O)(=O)Nc2ncns2)cc1C#N`, the area under the curve AUC(0-inf) in series [4] turned out to be 26 ng·h/mL. The solubility in series [5] is greater than 300 µM. This compound returned a logD in “physchem [1]” of 2. Besides, in the series “in vivo”, the bioavailability is less than 5%. Moreover, the Vd in series [6] came out at 1.8 L/kg; in series [10] it was 6.3 L/kg. In series [7], this compound returned a peak concentration (Cmax) of 4 ng/mL. Further, in “physchem [2]”, the pKa was determined as 3.5. Further, in series [9], the Papp amounted to 1.1 ×10⁻⁶ cm/s.

Take `CN1CC(n2nccc2-c2cc(Cl)ccc2Oc2cc(F)c(S(=O)(=O)Nc3ncns3)cc2F)C1`: the logD in “physchem [1]” was 1.

In the case of `Nc1[nH]ncc1-c1cc(Cl)ccc1Oc1cc(F)c(S(=O)(=O)Nc2cscn2)cc1Cl` [PF-05089771], the Cmax in [14] is 11 ng/mL; in [7], 541 ng/mL; in series [20] it was 998 ng/mL. Also, the solubility in series [5] was less than 0.3 µM. In addition, in [15], the bioavailability was determined as 110%. Besides, the basolateral-to-apical permeability (Papp B→A) in [16] came out at 6.3 ×10⁻⁶ cm/s. Moreover, the pH-dependent lipophilicity (logD) in the series “physchem [1]” was 2.3 to 2.6. Moreover, the Vd in series [6] was 0.2 L/kg; in series [19], 0.15 L/kg. The apical-to-basolateral permeability (Papp A→B) in series [17] amounted to 0.7 ×10⁻⁶ cm/s. Also, the time to peak (Tmax) in series [18] is 2 h; in series [21], 0.9 h. The compound further came in with a pKa in “physchem [2]” of 6.3. Besides, the fCmax in the series on Homo sapiens turned out to be 226 nM. Moreover, the Papp in series [9] is 3.8 ×10⁻⁶ cm/s.

In the case of `CCN1CC(n2nccc2-c2cc(Cl)ccc2Oc2ccc(S(=O)(=O)Nc3cscn3)cc2C#N)C1` [PF-05150122], the Cmax turned out to be 0.67 ng/mL in series [14] and 92.7 ng/mL in series [7]. Moreover, in series [5], the solubility is greater than 262 µM. In addition, the bioavailability in [15] stood at 52%; in the series “in vivo”, 68%. The Papp B→A in series [16] was found to be 11 ×10⁻⁶ cm/s. The compound further returned a pH-dependent lipophilicity (logD) in the series “physchem [1]” of 1.4. The Vd in series [6] was 0.9 L/kg; in series [19], 0.41 L/kg; in [10], 29.7 L/kg. In addition, in series [17], the apparent permeability from apical to basolateral (Papp A→B) is less than 0.5 ×10⁻⁶ cm/s. In [18], the Tmax was found to be 0.3 h. Further, the values for the pKa (in “physchem [2]”; in series [22]) were 6.5 and 7.4, respectively. Moreover, in series [9], the Papp amounted to 3.2 ×10⁻⁶ cm/s.

Take `O=S(=O)(Nc1nncs1)c1cc(Cl)c(Oc2ccc(C(F)(F)F)cc2-c2ccnnc2)cc1F` [PF-05186462]: the Cmax in series [14] is 4.8 ng/mL; in series [7], 73.2 ng/mL; in series [20], 2890 ng/mL. In series [5], the concentration in solution (solubility) was 286 µM (≈ 152 µg/mL). In addition, the bioavailability was 101% in series [15], 54% in series [23] and 16% in the series “in vivo”. Also, in [16], the Papp B→A turned out to be 1.1 ×10⁻⁶ cm/s. In “physchem [1]”, this compound gave a logD of 0.8 to 0.9. For the same compound, the Vd in series [6] worked out at 0.5 L/kg; in [19], 0.18 L/kg; in series [10], 11 L/kg. The Papp A→B in [17] is less than 0.5 ×10⁻⁶ cm/s. For the same compound, the time to peak (Tmax) in series [18] and in [21] was 1.5 h in each case. In addition, the pKa in the series “physchem [2]” came out at 4.3; in series [3], 4. In addition, the Papp in series [9] came out at 0.7 ×10⁻⁶ cm/s.

Usually logD stands for the decadic logarithm of the distribution of all forms, ionised or not, between an organic phase and buffer at a given pH. A low value points to a more hydrophilic compound. As a reminder, the pKa is the pH at which an ionisable group is half protonated. The low end stands for a stronger acid or weaker base, the high end for a weaker acid or stronger base. A word on the AUC(0-inf): it is the area under the concentration-time curve extrapolated to infinity. Low readings indicate less exposure, high ones more exposure. By solubility is commonly meant the concentration that dissolves in the medium under given conditions. Lower therefore signals little dissolved substance. Broadly, the Cmax is the peak of the concentration-time curve. A word on the Papp B→A: it is the apparent permeability from the basolateral to the apical side of a cell layer. For orientation: Papp A→B means how fast a substance crosses the layer from the apical side. A word on the Tmax: it is the time from dosing to the highest level.
